Read-outs that look alike come from different tables or passages of the source.
Experiments:
human D2 receptor = human D2 receptor (Homo sapiens (Human), UniProt P14416); assay: Radioligand binding assay, [3H]-spiperone, human D2 receptor; details: membranes of HEK293 EBNA cells expressing human D2; 0.7 nM [3H]-spiperone
Procedure: (§1) HEK293 EBNA cells were transiently transfected with expression plasmids encoding for the human D2 or D3 or for the human 5-HT2A receptor, respectively. The cells were harvested 48 h post-transfection, washed three times with cold PBS and stored at −80° C. prior to use. The pellet was suspended in cold 50 mM Tris-HCl buffer comprising 10 mM EDTA (pH 7.4) and was homogenized with a Polytron (Kinematica AG, Basel, Switzerland) for 20-30 sec at 12.000 rpm. After centrifugation at 48.000×g for 30 min at 4° C., the pellet was resuspended in cold 10 mM Tris-HCl buffer comprising 0.1 mM EDTA (pH 7.4), homogenized, and centrifuged as above. This pellet was further resuspended in a smaller volume of ice cold 10 mM Tris-HCl buffer comprising 0.1 mM EDTA (pH 7.4) and homogenized with a Polytron for 20-30 sec at 12.000 rpm. The protein content of this homogenate was determined with the Bio-Rad (Bradford) Protein Assay (Biorad Laboratories GmbH, München, Germany) according to the instructions of the manufacturer using gamma globulin as the standard. This homogenate was stored at −80° C. in aliquots and thawed immediately prior to use.
(§2) Aliquots of membrane preparations were thawed at RT, resuspended in assay buffer (D2, D3: 50 mM Tris-HCl, 120 mM NaCl, 5 mM MgCl2, 1 mM EDTA, 5 mM KCl, 1.5 mM CaCl2, pH=7.4; 5-HT2A: 50 mM Tris-HCl, 10 mM MgCl2, 1 mM EGTA, pH=7.4), homogenized with a Polytron for 20-30 sec at 12.000 rpm and adjusted to a final concentration of approximately 7.5 μg protein/well (D2, D3) and 15 μg protein/well (5-HT2A), respectively.
(§3) The binding affinity (Ki) of the compounds was determined using radioligand binding. Membranes were incubated in a total volume of 200 μl with a fixed concentration of radioligand (final concentration approximately 0.7 nM [^3H]-spiperone for D2, 0.5 nM [^3H]-spiperone for D3, and 1.1 nM [^3H]-ketanserin for 5-HT2A) and ten concentrations of test compound in ranging between 10 μM-0.1 nM for 1 h at RT. […] The nonspecific binding was determined with equally composed reaction mixtures in the presence of 10 μM unlabelled spiperone. Per well 45 μl of Microscint 40 (Perkin Elmer, Schwerzenbach, Switzerland) was added, plates for sealed, shaken for 20 min and counted for 3 min on a Topcount Microplate Scintillation Counter (Can berra Packard SA, Zürich, Switzerland) with quenching correction.
(§4) The CPM value for each duplicate of a concentration of competing compound was averaged (y1), then the % specific binding was calculated according to the equation (((y1−non-specific)/(total binding−non-specific))×100). Graphs were plotted with the % specific binding using XLfit, a curve fitting program that iteratively plots the data using Levenberg-Marquardt algorithm. […] The affinity constant (K) was calculated using the Cheng-Prusoff equation Ki=(IC50/1+([L]/Kd), where [L] is the concentration of radioligand and Kd is the dissociation constant of the radioligand at the receptor as determined by the saturation isotherm.

human 5-HT2A receptor = human 5-HT2A receptor (Homo sapiens (Human), UniProt P28223); assay: Radioligand binding assay, [3H]-ketanserin, human 5-HT2A receptor
Procedure: as §1, §2, §3
as §4, with “algorithm. The single site competition analysis equation used was y=A+((B−A)/(1+((x/C)D))), where y is the % specific binding, A is the minimum y, B is the maximum y, C is the IC50, x is the log 10 of the concentration of the competing compound and D is the slope of the curve (the Hill Coefficient).” for “algorithm.”

human D3 receptor = human D3 receptor (Homo sapiens (Human), UniProt P35462); assay: Radioligand binding assay, [3H]-spiperone, human D3 receptor; details: membranes of HEK293 EBNA cells expressing human D3; 0.5 nM [3H]-spiperone
Procedure: as §1, §2, §3
as §4, with “algorithm. The single site competition analysis equation used was y=A+((B−A)/(1+((x/C)D))), where y is the % specific binding, A is the minimum y, B is the maximum y, C is the IC50, x is the log 10 of the concentration of the competing compound and D is the slope of the curve (the Hill Coefficient).” for “algorithm.”

[1] = membranes of HEK293 EBNA cells expressing human 5-HT2A, 1.1 nM [3H]-ketanserin

Sequence of human D2 receptor (P14416 whole entry): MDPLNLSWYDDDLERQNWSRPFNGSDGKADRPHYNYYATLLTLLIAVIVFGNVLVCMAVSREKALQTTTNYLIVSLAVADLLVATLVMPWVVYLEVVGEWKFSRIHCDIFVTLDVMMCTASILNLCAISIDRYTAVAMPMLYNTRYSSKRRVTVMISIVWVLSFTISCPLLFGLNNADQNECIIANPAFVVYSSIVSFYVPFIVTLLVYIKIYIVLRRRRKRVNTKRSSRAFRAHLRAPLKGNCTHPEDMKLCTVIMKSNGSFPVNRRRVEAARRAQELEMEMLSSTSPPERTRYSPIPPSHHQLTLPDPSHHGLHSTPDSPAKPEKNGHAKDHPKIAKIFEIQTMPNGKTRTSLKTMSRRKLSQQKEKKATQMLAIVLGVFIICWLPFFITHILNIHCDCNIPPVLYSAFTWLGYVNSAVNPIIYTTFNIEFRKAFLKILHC
Sequence of human 5-HT2A receptor (P28223 whole entry): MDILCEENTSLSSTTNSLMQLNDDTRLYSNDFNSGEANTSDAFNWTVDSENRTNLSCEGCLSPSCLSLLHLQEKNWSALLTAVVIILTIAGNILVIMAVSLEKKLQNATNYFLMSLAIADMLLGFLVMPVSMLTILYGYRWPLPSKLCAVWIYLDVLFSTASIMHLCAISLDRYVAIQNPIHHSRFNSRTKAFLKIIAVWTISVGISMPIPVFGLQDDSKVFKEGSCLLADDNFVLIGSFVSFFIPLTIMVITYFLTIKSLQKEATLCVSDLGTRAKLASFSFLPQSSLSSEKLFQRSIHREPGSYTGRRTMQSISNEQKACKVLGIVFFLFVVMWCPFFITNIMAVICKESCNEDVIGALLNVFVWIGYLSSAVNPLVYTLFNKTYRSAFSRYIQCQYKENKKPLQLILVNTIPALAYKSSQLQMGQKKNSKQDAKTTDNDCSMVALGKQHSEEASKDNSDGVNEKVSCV
Sequence of human D3 receptor (P35462 whole entry): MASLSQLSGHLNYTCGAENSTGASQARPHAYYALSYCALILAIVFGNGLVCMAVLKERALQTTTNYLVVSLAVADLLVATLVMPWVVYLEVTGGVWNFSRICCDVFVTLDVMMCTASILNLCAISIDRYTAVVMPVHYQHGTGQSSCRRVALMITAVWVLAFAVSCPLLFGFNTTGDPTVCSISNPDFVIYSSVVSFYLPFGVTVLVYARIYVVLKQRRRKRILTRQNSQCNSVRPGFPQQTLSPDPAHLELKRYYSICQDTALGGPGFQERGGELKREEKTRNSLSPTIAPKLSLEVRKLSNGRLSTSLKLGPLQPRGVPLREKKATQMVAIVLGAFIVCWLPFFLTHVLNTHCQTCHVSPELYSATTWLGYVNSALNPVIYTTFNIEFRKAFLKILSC

SMILES: COCC(=O)N[C@H]1CC[C@H](CCN2CCN(c3nccc4occc34)CC2)CC1 [Example 8, N-{trans-4-[2-(4-Furo[3,2-c]pyridin-4-yl-piperazin-1-yl)-ethyl]-cyclohexyl}-2-methoxy-acetamide]
- Ki (human D2 receptor): 1160 nM
- Ki (human 5-HT2A receptor; [1]): 4.4 nM
- Ki (human D3 receptor): 77.2 nM

SMILES: O=C(CCO)N[C@H]1CC[C@H](CCN2CCN(c3nccc4occc34)CC2)CC1 [Example 6, N-{trans-4-[2-(4-Furo[3,2-c]pyridin-4-yl-piperazin-1-yl)-ethyl]-cyclohexyl}-3-hydroxy-propionamide]
- Ki (human D2 receptor): 959 nM
- Ki (human 5-HT2A receptor; [1]): 10.3 nM
- Ki (human D3 receptor): 19.9 nM

SMILES: CC(=O)N[C@H]1CC[C@H](CCN2CCN(c3nccc4sccc34)CC2)CC1 [Example 15, N-{trans-4-[2-(4-Thieno[3,2-c]pyridin-4-yl-piperazin-1-yl)-ethyl]-cyclohexyl}-acetamide]
- Ki (human D2 receptor): 119 nM
- Ki (human 5-HT2A receptor): 3.3 nM
- Ki (human D3 receptor): 1.9 nM

SMILES: CO[C@H]1CC[C@H](CC(=O)N[C@H]2CC[C@H](CCN3CCN(c4nccc5sccc45)CC3)CC2)C1 [Example 26, 2-((1S,3S)-3-Methoxy-cyclopentyl)-N-{trans-4-[2-(4-thieno[3,2-c]pyridin-4-yl-piperazin-1-yl)-ethyl]-cyclohexyl}-acetamide]
- Ki (human D2 receptor): 246 nM
- Ki (human 5-HT2A receptor; [1]): 4.3 nM
- Ki (human D3 receptor): 3 nM

SMILES: O=C(CC1CCOCC1)N[C@H]1CC[C@H](CCN2CCN(c3nccc4occc34)CC2)CC1 [Example 10, N-{trans-4-[2-(4-Furo[3,2-c]pyridin-4-yl-piperazin-1-yl)-ethyl]-cyclohexyl}-2-(tetrahydro-pyran-4-yl)-acetamide]
- Ki (human D2 receptor): 683 nM
- Ki (human 5-HT2A receptor; [1]): 6.1 nM
- Ki (human D3 receptor): 30.3 nM

SMILES: CS(=O)(=O)N[C@H]1CC[C@H](CCN2CCN(c3nccc4occc34)CC2)CC1 [Example 14, N-{trans-4-[2-(4-Furo[3,2-c]pyridin-4-yl-piperazin-1-yl)-ethyl}-cyclohexyl]-methanesulfonamide]
- Ki (human D2 receptor): 866 nM
- Ki (human 5-HT2A receptor; [1]): 6.8 nM
- Ki (human D3 receptor): 34.1 nM

SMILES: CN(C)S(=O)(=O)N[C@H]1CC[C@H](CCN2CCN(c3nccc4occc34)CC2)CC1 [Example 17, N′-(trans-4{[4-(furo[3,2-c]pyridin-4-yl)-piperazin-1-yl]-ethyl}cyclohexyl)-N,N-dimethylsulfamide]
- Ki (human D2 receptor): 539 nM
- Ki (human 5-HT2A receptor; [1]): 5.3 nM
- Ki (human D3 receptor): 33 nM

SMILES: O=C(N[C@H]1CC[C@H](CCN2CCN(c3nccc4occc34)CC2)CC1)C1CCOCC1 [Example 11, Tetrahydro-pyran-4-carboxylic acid {trans-4-[2-(4-furo[3,2-c]pyridin-4-yl-piperazin-1-yl)-ethyl]-cyclohexyl}-amide]
- Ki (human D2 receptor): 515 nM
- Ki (human 5-HT2A receptor; [1]): 2.9 nM
- Ki (human D3 receptor): 55.7 nM

SMILES: O=C(CC1CCOCC1)N[C@H]1CC[C@H](CCN2CCN(c3nccc4sccc34)CC2)CC1 [Example 23, 2-(Tetrahydro-pyran-4-yl)-N-{trans-4-[2-(4-thieno[3,2-c]pyridin-4-yl-piperazin-1-yl)-ethyl]-cyclohexyl}-acetamide]
- Ki (human D2 receptor): 144 nM
- Ki (human 5-HT2A receptor; [1]): 3 nM
- Ki (human D3 receptor): 2.7 nM

SMILES: CO[C@H]1CC[C@H](CC(=O)N[C@H]2CC[C@H](CCN3CCN(c4nccc5occc45)CC3)CC2)CC1 [Example 9, N-{trans-4-[2-(4-Furo[3,2-c]pyridin-4-yl-piperazin-1-yl)-ethyl]-cyclohexyl}-2-(trans-4-methoxy-cyclohexyl)-acetamide]
- Ki (human D2 receptor): 1460 nM
- Ki (human 5-HT2A receptor; [1]): 5.6 nM
- Ki (human D3 receptor): 32.7 nM

SMILES: COCCC(=O)N[C@H]1CC[C@H](CCN2CCN(c3nccc4occc34)CC2)CC1 [Example 5, N-{trans-4-[2-(4-Furo[3,2-c]pyridin-4-yl-piperazin-1-yl)-ethyl]-cyclohexyl}-3-methoxy-propionamide]
- Ki (human D2 receptor): 1350 nM
- Ki (human 5-HT2A receptor; [1]): 8.1 nM
- Ki (human D3 receptor): 24 nM

SMILES: CS(=O)(=O)N[C@H]1CC[C@H](CCN2CCN(c3nccc4sccc34)CC2)CC1 [Example 30, N-{trans-4-[2-(4-Thieno[3,2-c]pyridin-4-yl-piperazin-1-yl)-ethyl]-cyclohexyl}-methanesulfonamide]
- Ki (human D2 receptor): 265 nM
- Ki (human 5-HT2A receptor; [1]): 2.9 nM
- Ki (human D3 receptor): 4.3 nM

SMILES: CCC(=O)N[C@H]1CC[C@H](CCN2CCN(c3nccc4occc34)CC2)CC1 [Example 4, N-{trans-4-[2-(4-Furo[3,2-c]pyridin-4-yl-piperazin-1-yl)-ethyl]-cyclohexyl}-propionamide]
- Ki (human D2 receptor): 780 nM
- Ki (human 5-HT2A receptor): 6.5 nM
- Ki (human D3 receptor): 11.8 nM

SMILES: COCC(=O)N[C@H]1CC[C@H](CCN2CCN(c3nccc4sccc34)CC2)CC1 [Example 22, 2-Methoxy-N-{trans-4-[2-(4-thieno[3,2-c]pyridin-4-yl-piperazin-1-yl)-ethyl]-cyclohexyl}-acetamide]
- Ki (human D2 receptor): 220 nM
- Ki (human 5-HT2A receptor; [1]): 2.2 nM
- Ki (human D3 receptor): 3.2 nM

SMILES: O=C(CO)N[C@H]1CC[C@H](CCN2CCN(c3nccc4occc34)CC2)CC1 [Example 7, N-{trans-4-[2-(4-Furo[3,2-c]pyridin-4-yl-piperazin-1-yl)-ethyl]-cyclohexyl}-2-hydroxy-acetamide]
- Ki (human D2 receptor): 1360 nM
- Ki (human 5-HT2A receptor; [1]): 5.6 nM
- Ki (human D3 receptor): 43 nM

SMILES: O=C(N[C@H]1CC[C@H](CCN2CCN(c3nccc4occc34)CC2)CC1)C1CC1 [Example 13, Cyclopropanecarboxylic acid {trans-4-[2-(4-furo[3,2-c]pyridin-4-yl-piperazin-1-yl)-ethyl]-cyclohexyl}-amide]
- Ki (human D2 receptor): 261 nM
- Ki (human 5-HT2A receptor; [1]): 4.4 nM
- Ki (human D3 receptor): 21.8 nM

SMILES: O=C(C[C@H]1CC[C@H](O)CC1)N[C@H]1CC[C@H](CCN2CCN(c3nccc4occc34)CC2)CC1 [Example 3, N-{trans-4-[2-(4-Furo[3,2-c]pyridin-4-yl-piperazin-1-yl)-ethyl]-cyclohexyl}-2-(trans-4-hydroxy-cyclohexyl)-acetamide]
- Ki (human D2 receptor): 1540 nM
- Ki (human 5-HT2A receptor): 8.8 nM
- Ki (human D3 receptor): 54.6 nM

SMILES: CC(=O)N[C@H]1CC[C@H](CCN2CCN(c3nccc4occc34)CC2)CC1 [Example 1, N-{trans-4-[2-(4-Furo[3,2-c]pyridin-4-yl-piperazin-1-yl)-ethyl]-cyclohexyl}-acetamide]
- Ki (human D2 receptor): 486 nM
- Ki (human 5-HT2A receptor): 9.1 nM
- Ki (human D3 receptor): 18.3 nM

SMILES: CCOCC(=O)N[C@H]1CC[C@H](CCN2CCN(c3nccc4occc34)CC2)CC1 [Example 12, 2-Ethoxy-N-{trans-4-[2-(4-furo[3,2-c]pyridin-4-yl-piperazin-1-yl)-ethyl]-cyclohexyl}-acetamide]
- Ki (human D2 receptor): 996 nM
- Ki (human 5-HT2A receptor; [1]): 7.4 nM
- Ki (human D3 receptor): 150 nM

SMILES: CO[C@@H]1CC[C@@H](CC(=O)N[C@H]2CC[C@H](CCN3CCN(c4nccc5sccc45)CC3)CC2)C1 [Example 25, 2-((1R,3R)-3-Methoxy-cyclopentyl)-N-{trans-4-[2-(4-thieno[3,2-c]pyridin-4-yl-piperazin-1-yl)-ethyl]-cyclohexyl}-acetamide]
- Ki (human D2 receptor): 234 nM
- Ki (human 5-HT2A receptor; [1]): 4.9 nM
- Ki (human D3 receptor): 2.7 nM

SMILES: CCC(=O)N[C@H]1CC[C@H](CCN2CCN(c3nccc4sccc34)CC2)CC1 [Example 18, N-{trans-4-[2-(4-Thieno[3,2-c]pyridin-4-yl-piperazin-1-yl)-ethyl]-cyclohexyl}-propionamide]
- Ki (human D2 receptor): 163 nM
- Ki (human 5-HT2A receptor; [1]): 2.6 nM
- Ki (human D3 receptor): 1.6 nM

From patent US8586579B2, “Anellated pyridine compounds” (Hoffmann-La Roche Inc., priority 2010, dated 2013)
